Tests used:
[1] = target: human mGluR5a receptor (Homo sapiens, UniProt P41594); assay: Cell-based functional assay (Ca2+ mobilization, FDSS), potentiation of glutamate EC20 response; settings: H10H cell line; for Emax: maximum % effect in the concentration-response curve as percent of maximal glutamate response, glutamate EC20; for EC50: potentiation in presence of glutamate EC20, concentration in mol/L
Excerpt: Human mGluR5a cDNA in pCMV6-XL6 mammalian expression plasmid was purchased from OriGene Technologies, Inc. (catalogue number SC326357) and subcloned into pcDNA3.1(−). Human embryonic kidney (HEK)293A cells were then transfected with human mGluR5a pcDNA3.1(−) using LipofectAmine-2000 (Invitrogen) and monoclones were selected and tested for functional response using a Ca^2+ mobilization assay. Monoclones were named for the species (“H” for human) plus the location on the plate (e.g. “10H”).
HEK cells transfected with the human mGluR5a receptor (H10H or H12H cell line) were plated at 15,000 cells/well in clear-bottomed poly-D-lysinecoated assay plates (BD Falcon) in glutamate-glutamine-free growth medium and incubated overnight at 37° C. and 5% CO2. Cell-lines used were either the H10H or H12H cell-lines expressing the human mGluR5 receptor. The following day, the growth medium was removed and the cells were washed with assay buffer containing 1× Hank's balanced salt solution (Invitrogen, Carlsbad, Calif.), 20 mM HEPES, 2.5 mM probenecid, pH 7.4 and left with 20 μL of this reagent. Following this step, the cells were loaded with calcium indicator dye, fluo-4 AM, to a final concentration of 2 μM and incubated for 40-45 min at 37° C. The dye solution was removed and replaced with assay buffer. Cell plates were held for 10-15 min at room temperature and were then loaded into the Functional Drug Screening System 6000 (FDSS 6000, Hamamatsu, Japan).
After establishment of a fluorescence baseline for about 3 seconds, the compounds of the present invention were added to the cells, and the response in cells was measured. 2.3 minutes later an EC20 concentration of the mGluR5 receptor agonist glutamate was added to the cells, and the response of the cells was measured for about 1.7 minutes. All test compounds were dissolved and diluted to a concentration of 10 mM in 100% DMSO and then serially diluted into assay buffer for a 2× stock solution in 0.6% DMSO; stock compounds were then added to the assay for a final DMSO concentration of 0.3% after the first addition to the assay well. Calcium fluorescence measures were recorded as fold over basal fluorescence; raw data was then normalized to the maximal response to glutamate. Potentiation of the agonist response of the mGluR5 receptor in the present invention was observed as an increase in response to submaximal concentrations of glutamate in the presence of compound compared to the response to glutamate in the absence of compound.
The concentration-response curves of compounds of the present invention, obtained in the presence of EC20 of mGluR5 receptor agonist glutamate to determine positive allosteric modulation, were generated using Microsoft Excel with IDBS XLFit add-ins. The raw data file containing all time points was used as the data source in the analysis template. This was saved by the FDSS as a tab-delimited text file. Data were normalized using a static ratio function (F/F0) for each measurement of the total 350 values per well divided by each well's initial value. Data was then reduced as to peak amplitudes (Max Initial Min) using a time range that starts approximately 1 second after the glutamate EC20 addition and continues for approximately 40 seconds. This is sufficient time to capture the peak amplitude of the cellular Calcium response. Individual amplitudes were expressed as % EMax by multiplying each amplitude by 100 and then dividing the product by the mean of the amplitudes derived from the glutamate ECMax-treated wells. pEC50 values for test compounds were generated by fitting the normalized values versus the log of the test compound concentration (in mol/L) using a 4 parameter logistic equation where none of the parameters were fixed. Each of the three values collected at each concentration of test compound were weighted evenly. Individual values falling outside the 95% prediction limits of the curve fit were automatically excluded from the fit. […]

[2] = tested on: amphetamine-induced hyperlocomotion; assay: Reversal of amphetamine-induced hyperlocomotion in rats; format: in vivo, male Sprague-Dawley rats; settings: 10 mg/kg p.o.; amphetamine 1 mg/kg s.c.; intervals 13-24; rat
Method: The study was carried out using male Sprague-Dawley rats weighing 225 g-275 g, between 2-3 months old (Harlan, Inc., Indianapolis, Ind.). They were kept in the animal care facility certified by the American Association for the Accreditation of Laboratory Animal Care (AALAC) under a 12-hour light/dark cycle (lights on: 6 a.m.; lights off: 6 p.m.) and had free access to food and water. The experimental protocols performed during the light cycle were approved by the Institutional Animals Care and Use Committee of Vanderbilt University and conformed to the guidelines established by the National Research Council Guide for the Care and Use of Laboratory Animals
Locomotor activity was assessed as mean distance traveled (cm) in Smart Open Field locomotor activity test chambers (Hamilton-Kinder, San Diego, Calif.) with 16×16 photobeams with chambers measuring 43.2 cm (Length)×43.2 cm (Width)×30.5 cm (Height) (Med Associates, St. Albans, Vt.). The animals were habituated for 30 min and then dosed with vehicle or test compound. The rats were then placed into cages. At 60 min, all rats were injected subcutaneously with 1 mg/kg amphetamine or vehicle and then monitored for an additional 60 min. Animals are monitored for a total of 120 minutes.
Data are expressed as the mean (±SEM) distance traveled recorded in 5 min intervals over the test period. The data was analyzed using repeated measures analysis of variance (ANOVA) followed by post-hoc testing using Dunnett's test, when appropriate. A difference was considered significant when p≦0.05. The data for the dose-response studies were analyzed by a between-group analysis of variance. If there was a main effect of dose, then each dose group was compared with the vehicle amphetamine group. The calculations were performed using JMP IN 8 (SAS Institute, Cary, N.C.) statistical software and graphed using SigmaPlot9 (Saugua, Mass.).
Amphetamine sulfate was obtained from Sigma (Cat#A5880-1G; St. Louis, Mo.) and 10 mg was dissolved in 10 ml of water. […]

Chain of human mGluR5a receptor (P41594 21-1180 isoform P41594-2 limits assumed): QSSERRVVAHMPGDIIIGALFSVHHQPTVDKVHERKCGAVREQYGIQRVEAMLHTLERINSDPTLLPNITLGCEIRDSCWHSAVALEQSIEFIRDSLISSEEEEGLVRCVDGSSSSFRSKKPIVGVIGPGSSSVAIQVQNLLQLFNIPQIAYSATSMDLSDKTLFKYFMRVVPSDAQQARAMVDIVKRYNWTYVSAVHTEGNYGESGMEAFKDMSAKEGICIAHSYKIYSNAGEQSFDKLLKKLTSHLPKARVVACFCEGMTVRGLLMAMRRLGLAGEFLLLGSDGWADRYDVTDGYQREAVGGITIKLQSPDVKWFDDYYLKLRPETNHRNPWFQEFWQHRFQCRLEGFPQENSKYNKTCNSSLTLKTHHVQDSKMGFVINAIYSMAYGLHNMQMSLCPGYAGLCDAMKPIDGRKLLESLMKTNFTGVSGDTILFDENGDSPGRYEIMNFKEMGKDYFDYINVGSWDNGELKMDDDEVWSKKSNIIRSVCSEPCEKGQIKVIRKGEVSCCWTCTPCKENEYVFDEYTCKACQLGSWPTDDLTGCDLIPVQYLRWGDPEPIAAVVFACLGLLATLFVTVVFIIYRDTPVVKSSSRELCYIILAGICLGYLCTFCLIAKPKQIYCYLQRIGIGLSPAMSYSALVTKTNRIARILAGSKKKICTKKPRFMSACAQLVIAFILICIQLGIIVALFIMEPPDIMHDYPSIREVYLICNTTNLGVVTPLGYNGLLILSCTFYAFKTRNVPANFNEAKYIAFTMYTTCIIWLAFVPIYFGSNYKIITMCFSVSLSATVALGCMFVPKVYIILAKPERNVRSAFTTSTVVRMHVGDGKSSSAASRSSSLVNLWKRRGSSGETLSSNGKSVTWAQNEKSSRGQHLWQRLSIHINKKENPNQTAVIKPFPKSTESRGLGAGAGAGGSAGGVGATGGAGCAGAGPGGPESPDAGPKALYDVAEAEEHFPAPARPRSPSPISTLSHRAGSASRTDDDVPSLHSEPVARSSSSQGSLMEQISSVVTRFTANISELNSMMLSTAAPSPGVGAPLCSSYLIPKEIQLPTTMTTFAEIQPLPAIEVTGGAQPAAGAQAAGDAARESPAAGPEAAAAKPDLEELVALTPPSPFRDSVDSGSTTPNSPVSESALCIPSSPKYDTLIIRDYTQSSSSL

| SMILES | melting point [°C] | Emax [1] [%] | EC50 [1] [nM] | % Reversal of amphetamine-induced hyperlocomotion [2] [%] |
| --- | --- | --- | --- | --- |
| CN(C)c1cccc(N2CCn3nc(OCc4ccccc4)cc3C2=O)n1 [Example B15, 2-(benzyloxy)-5-(6-(dimethylamino)pyridin-2-yl)-6,7-dihydropyrazolo[1,5-a]pyrazin-4(5H)-one] | 115.3 | 61 | 25.7 | 32 |
| Cc1nc(N2CCn3nc(OCc4ccccc4)cc3C2=O)ccc1F [Example B17, 2-(benzyloxy)-5-(5-fluoro-6-methylpyridin-2-yl)-6,7-dihydropyrazolo[1,5-a]pyrazin-4(5H)-one] | 167.1 | 55 | 123 | 14 |
| O=C1c2cc(OCc3cccc(F)c3)nn2CCN1c1ccc(F)cc1 [Example B26, 2-((3-fluorobenzyl)oxy)-5-(4-fluorophenyl)-6,7-dihydropyrazolo[1,5-a]pyrazin-4(5H)-one] | 116.4 | 45 | 95.5 | 25 |
| O=C1c2cc(OCc3ccccc3)nn2CCCN1c1ccc(F)cn1 [Example B50, 2-(benzyloxy)-5-(5-fluoropyridin-2-yl)-5,6,7,8-tetrahydro-4H-pyrazolo[1,5-a][1,4]diazepin-4-one] | 112.1 to 119.1 | 25 | > 10000 |  |
| Cc1nc(N2CCCn3nc(OCc4ccccc4)cc3C2=O)ccc1F [Example B51] | 114.6 to 116.1 | 53 | 363 |  |
| Cc1cccc(N2CCCn3nc(OCc4ccccc4)cc3C2=O)n1 [Example B52] | 142.2 to 142.3 | 48 | 269 |  |
| O=C1c2cc(OCc3ccccc3)nn2CCCN1CC1CC1 [Example B53, 2-(benzyloxy)-5-(cyclopropylmethyl)-5,6,7,8-tetrahydro-4H-pyrazolo[1,5-a][1,4]diazepin-4-one] | 68.1 to 68.4 | 23 | 1320 |  |
| COc1c(Cl)cccc1CN1CCn2nc(OCc3ccccc3)cc2C1=O [Example B57, 2-(benzyloxy)-5-(3-chloro-2-methoxybenzyl)-6,7-dihydropyrazolo[1,5-a]pyrazin-4(5H)-one] | 232.7 | 42 | 75.9 |  |
| O=C1c2cc(OCc3ccccc3)nn2CCN1Cc1ccccc1 [Example B59] | 103.8 | 36 | 87.1 |  |
| COc1cc(CN2CCn3nc(OCc4ccccc4)cc3C2=O)ccc1F [Example B69] | 115.1 | 63 | 692 |  |
| COc1cccc(F)c1CN1CCn2nc(OCc3ccccc3)cc2C1=O [Example B70] | 162.2 | 52 | 427 |  |
| O=C1c2cc(OCc3ccccc3)nn2CCN1CC1CC1(F)F (stereo not drawn) [Example B72] | 107.4 | 21 | > 30200 |  |

— patent US8901125B2, “Substituted bicyclic alkoxy pyrazole analogs as allosteric modulators of mGluR5 receptors” (Vanderbilt University, priority 2012, dated 2014)
